How the values were obtained:
[1] = tested on: PON2-KD and wild-type C57BL/6 mice; test: MPTP model in wild-type and PON2-knockdown mice; format: in vivo, mouse
Method: (§1) Animals were allowed at least 1 week of acclimatization before being subjected to the study and were housed in a regulated environment with a 12-h/12-h light/dark cycle. Food and water were provided ad libitum. The animal experiment was carried out in accordance with the National Institutes of Health Guide for the Care and Use of Laboratory Animals (NIH Publications No. 80–23; revised 1996). All procedures for handling mice were carried out in accordance with “Principles of Laboratory Animal Care” and the Animal Care and Use guidelines of Kyung Hee University, Seoul, Korea (KHSASP-20-163).
(§2) MPTP was dissolved in distilled water and injected intraperitoneally for five days from day 10 of the 21-day experiment period. Vuti or rasagiline was administered via oral gavage for 21 days. Vehicles for both Vuti and MPTP (distilled water) were administered to all mice. Mice were randomly divided for all studies. For the first set of studies shown in Fig. 3, each group consisted of 5 animals.
To determine forelimb and hindlimb motor coordination and balance, we performed the rotarod test as described previously. Also, the pole test was performed to measure bradykinesia. […] On day 20, the time spent on the rotating bar at 20 rpm, which was defined as the latent period, was recorded. Performance was recorded as 300 s if the latent period exceeded 300 s. […] The time to land down and place four fee on the floor was recorded as the time for locomotion activity (T-LA). […]
Free-floating brain sections were processed with the avidin-biotin peroxidase complex (ABC) complex (Vector Laboratories, Burlingame, CA, USA) method. […] The immunoperoxidase signals of TH was detected by incubating sections with 0.5 mg/ml 3,3′-diaminobenzidine (Sigma, St. Louis, MO, USA) in 0.1 M PB containing 0.003% H2O2. […] TH-positivity in the ST was measured by the optical density of TH-positive fibers at x40 magnification using ImageJ software (National Institutes of Health, Bethesda, MD, USA). […] (5 sections/series) were counted at x100 magnification as previously described. […]

[2] = tested on: MPTP-injected C57BL/6 mice; test: MPTP-injected sub-acute PD mouse model (pole test, rotarod, TH immunohistochemistry); format: in vivo; conditions: MPTP mice
Method: as §1, §2
To determine forelimb and hindlimb motor coordination and balance, we performed the rotarod test as described previously. Also, the pole test was performed to measure bradykinesia. For the rotarod test, the animals were pre-trained on the rotating bar of a rotarod unit set (LE 8500, Letica, Spain) on days 18 and 19 before the test on day 20. During pre-training, three trials per day were performed (5 rpm rotation speed on the first day, 15 rpm rotation speed on the second day). Mice were kept on the rotating bar (7.3-cm diameter) for 5 min on each trial. On day 20, the time spent on the rotating bar at 20 rpm, which was defined as the latent period, was recorded. Performance was recorded as 300 s if the latent period exceeded 300 s. Mice had at least 5 min of rest between trials to reduce stress and fatigue. Each animal underwent three test trials, and the mean of the test results was subjected to statistical analysis. For the pole test, mice were held on the top of the pole (diameter 8 mm, height 55 cm, with a rough surface). The time to land down and place four fee on the floor was recorded as the time for locomotion activity (T-LA).
On day 21, mice were anesthetized with sodium pentobarbital (50 mg/kg intraperitoneally) and transcardially perfused with saline containing 0.5% sodium nitrate and heparin (10 U/mL) and then fixed with 4% PFA in 0.1 M phosphate-buffer (PB, pH 7.2). Dissected brains were post-fixed overnight in buffered 4% PFA at 4 °C and stored in a 30% sucrose solution until they sank. Brains were cryosectioned into 30 μm thick coronal sections in a Cryostat (Microsystems AG, Leica, Wetzlar, Germany) and stored until use at 4℃ in a cryoprotectant (25% ethylene glycol, 25% glycerol, 0.2 M PB, and water). All sections were collected in six separate series and processed for immunostaining.
Free-floating brain sections were processed with the avidin-biotin peroxidase complex (ABC) complex (Vector Laboratories, Burlingame, CA, USA) method. Briefly, brain sections were incubated with primary rabbit anti-TH antibodies (1:1000; Pel-Freez Biologicals, Rogers, AR, USA) overnight at 4 °C, with biotinylated anti-rabbit IgG (1:400) for 1 h at room temperature, and then with the ABC solution (1:1:200) for 1 h at room temperature. The immunoperoxidase signals of TH was detected by incubating sections with 0.5 mg/ml 3,3′-diaminobenzidine (Sigma, St. Louis, MO, USA) in 0.1 M PB containing 0.003% H2O2. Stained brain sections were mounted on gelatin-coated slides and imaged under a bright-field microscope (Olympus Optical, Tokyo, Japan). TH-positivity in the ST was measured by the optical density of TH-positive fibers at x40 magnification using ImageJ software (National Institutes of Health, Bethesda, MD, USA). TH-positive cells in the SNpc in brain tissue Sect. (5 sections/series) were counted at x100 magnification as previously described. […]

[3] = Vuti 1, 50, 100 mg/kg/day or rasagiline 0.1 mg/kg/day orally for 21 days

Question: Which “neuroprotective effects in PON2-KD mice” value ([1]; PON2-KD mice, MPTP, Vuti 50 mg/kg oral for three weeks) does the source give for `CCOc1ccc(C2COc3c(ccc4c3CCC(C)(C)O4)C2)c(O)c1` (stereo not shown) [Vuti, Vutiglabridin] here?
Answer: absent

Question: What about the “motor behavior, dopaminergic neuronal cell count and fiber density without MPTP” value ([1]; non-MPTP-injected wild-type mice, 50 mg/kg Vuti, vs vehicle-only) of the same molecule?
Answer: no changes

Question: What about the “MPTP-induced damage to motor behaviors and dopaminergic neurons in wild-type mice” value ([1]; wild-type mice, MPTP, Vuti 50 mg/kg for three weeks) of the same molecule?
Answer: significantly attenuated

Question: What about the “effect on T-LA in the pole test” value [2, 3] of the same molecule?
Answer: significantly normalized

Question: What about the “effect on latency to fall in the rotarod test” value [2, 3] of the same molecule?
Answer: significantly normalized

Question: And the “number of TH-positive cells in the SNpc and fiber density in the ST” value ([2]; Vuti 1, 50, 100 mg/kg/day oral, p < 0.001 vs. control, levels comparable to rasagiline)?
Answer: dose-dependently increased

Question: What about the maximum efficacy dose ([2]; no difference in neuroprotection between 50 and 100 mg/kg) of the same molecule?
Answer: 50 mg/kg
